Data set [1] can be described thus: Acceleration test of plasma samples with stabilizers (30° C. for 1.5 days, against control plasma stored at −95° C. to −65° C.), LC-MS/MS Area/IS Area. The protocol: Samples were collected in EDTA-anticoagulant blood collection tubes and then rapidly subjected to […] centrifugation at 2-8° C. to separate plasma. 0.95 mL of the plasma was transferred into centrifuge tubes. After 50 μL of the stabilizer was added for uniform mixing, the plasma samples were stored by refrigeration or freezing.
• (1) 500 μL of plasma/urine samples to be tested were taken, and 50 μL of the internal standard solution and 500 μL of the buffer solution were sequentially added for vertex mixing to obtain diluted samples. • (2) The magnetic medium composite material suspension was subjected to full vortex treatment to reach a suspension state, and then subsequent operation was performed. • (3) Different reagents were added into wells of a preprocessing plate according to the follow operation: adding 200 μL of the magnetic medium composite material suspension in column 1, adding 500 μL of the balance solution in column 2, adding 850 μL of the diluted samples in column 3, adding 500 μL of the balance solution in column 4, adding 200 μL of a rinsing solution in column 5, and adding 100 μL of the elution solution in column 6. • (4) An extraction operation procedure was carried out, as shown in Table 5.
Each group of the plasma samples were stored at 30° C. for 1.5 days, and plasma without addition of any compounds stored at −95° C. to −65° C. was used as a control. […] The stabilizing effect of the single-component stabilizers on the plasma samples was investigated.
The stabilizers were mixed with plasma (the volume ratio of the stabilizers to plasma samples was 1:19), and high concentration plasma samples and low concentration plasma samples were prepared by the method provided in Example 1.
With plasma stored at −95° C. to −65° C. as a control, the above plasma samples were separately stored at 30° C. for 1.5 days to investigate the stability. […]

Data set [2] in a line: Stability of ascorbic acid and glutathione in stabilizers accelerated at 37° C. for 14 days against an unaccelerated stabilizer. As to conditions: for stability of ascorbic acid and glutathione in stabilizers after acceleration: 37° C. for 14 days (equivalent to 1 year at 2-8° C.); for Relative deviation %: after acceleration at 37° C. for 14 days vs new formulations. In kind it is physicochemical. The protocol: Stabilizers (Example 1) were accelerated at 37° C. for 14 days (equivalent to 1 year at 2-8° C.) and then compared with an unaccelerated stabilizer.

A short description of data set [3]: pH adjustment ability of urine diluents to standard products and urine samples (pH test papers). It is filed as physicochemical, human. As to conditions: 20 μL urine + 480 μL diluent + 50 μL internal standard solution + 500 μL buffer solution. The method, then: In the present example, standard products of catecholamines in urine and urine samples from different sources (Sample 1 to Sample 6 are urine samples with different pH values) were selected to carry out an experiment. The urine samples were collected within 24 h by the method provided in Example 1, 20 μL of the urine samples were taken, 480 μL of urine diluents shown in Table 30 were added, respectively, then vortex mixing was performed, and 50 μL of an internal standard solution and 500 μL of a buffer solution were sequentially added to obtain urine samples to be tested. Then, pH test papers were used to detect whether the urine samples to be tested were neutral. The pH adjustment ability of different urine diluents to standard products and samples was investigated.
However, some samples are still acidic or alkaline. Thus, ammonium acetate was added on the basis of the formic acid, and different proportions of the formic acid and the ammonium acetate were investigated.

Where [4] appears, read: plasma at a high concentration level, plasma containing 50 μg/mL of the component, control plasma 0.624.
Setting [5] is: plasma at a high concentration level, plasma containing 50 μg/mL of the component, control plasma 1.522.
Setting [6] is: plasma at a high concentration level, plasma containing 50 μg/mL of the component, control plasma 2.27.
[7] abbreviates: plasma at a high concentration level, plasma containing 200 μg/mL of the component, control plasma 0.624.
Where [8] appears, read: plasma at a high concentration level, plasma containing 200 μg/mL of the component, control plasma 1.522.
Where [9] appears, read: plasma at a high concentration level, plasma containing 200 μg/mL of the component, control plasma 2.27.
Setting [10] is: plasma at a low concentration level, plasma containing 50 μg/mL of the component, control plasma 0.079.
The mark [11] stands for this setting: plasma at a low concentration level, plasma containing 50 μg/mL of the component, control plasma 0.219.
[12] abbreviates: plasma at a low concentration level, plasma containing 50 μg/mL of the component, control plasma 0.233.
Setting [13] is: plasma at a low concentration level, plasma containing 200 μg/mL of the component, control plasma 0.079.
[14] abbreviates: plasma at a low concentration level, plasma containing 200 μg/mL of the component, control plasma 0.219.
[15] abbreviates: plasma at a low concentration level, plasma containing 200 μg/mL of the component, control plasma 0.233.
[16] abbreviates: After acceleration (stabilizer of Example 1, 37° C. for 14 days).
Setting [17] is: New formulations (unaccelerated stabilizer of Example 1).

“And” between values parts separate entries of the source, which are not always exact repeats. Equal values may be shown once.

Turning to `N[C@@H](CCC(=O)N[C@@H](CS)C(=O)NCC(=O)O)C(=O)O` [glutathione], the “Ratio (Area/IS Area) E” value in data set [1] (setting [4]), in data set [1] (setting [7]), in data set [1] (setting [10]) and in data set [1] (setting [13]) was 0 each time. Besides, the “Ratio (Area/IS Area) NE” value in data set [1] (setting [5]), in data set [1] (setting [8]), in data set [1] (setting [11]) and in data set [1] (setting [14]) was 0 in each case. Besides, the “Ratio (Area/IS Area) DA” value in data set [1] (setting [6]), in data set [1] (setting [9]), in data set [1] (setting [12]) and in data set [1] (setting [15]) was 0 each time. For the same molecule, the “stability of ascorbic acid and glutathione in stabilizers after acceleration” value in data set [2] is “maintained stable”. For the same molecule, the Area in data set [2] (setting [16]) was 7.45E+04 and 7.62E+04 and 8.98E+04; in data set [2] (setting [17]) it was 8.44E+04. Also, the Relative deviation % in data set [2] was −5.0%.
With `O=CO` [formic acid], in data set [3], the “pH adjustment ability of urine diluent to standard products and samples” value is given as “uniformly adjust most of samples to neutral”. Besides, the “Ratio (Area/IS Area) E” value worked out at 0.295 in data set [1] (plasma at a high concentration level, plasma containing 0.5% of the acid, control plasma 0.624); 0 in data set [1] (plasma at a high concentration level, plasma containing 2.0% of the acid, control plasma 0.624); 0 in data set [1] (plasma at a low concentration level, plasma containing 0.5% of the acid, control plasma 0.079); 0 in data set [1] (plasma at a low concentration level, plasma containing 2.0% of the acid, control plasma 0.079). Also, the “Ratio (Area/IS Area) NE” value in data set [1] (plasma at a high concentration level, plasma containing 0.5% of the acid, control plasma 1.522) was found to be 0; in data set [1] (plasma at a high concentration level, plasma containing 2.0% of the acid, control plasma 1.522), 0; in data set [1] (plasma at a low concentration level, plasma containing 0.5% of the acid, control plasma 0.219), 0; in data set [1] (plasma at a low concentration level, plasma containing 2.0% of the acid, control plasma 0.219), 0. For the same molecule, the “Ratio (Area/IS Area) DA” value in data set [1] (plasma at a high concentration level, plasma containing 0.5% of the acid, control plasma 2.27) is 0; in data set [1] (plasma at a high concentration level, plasma containing 2.0% of the acid, control plasma 2.27), 0; in data set [1] (plasma at a low concentration level, plasma containing 0.5% of the acid, control plasma 0.233), 0; in data set [1] (plasma at a low concentration level, plasma containing 2.0% of the acid, control plasma 0.233) it was 0. Also, the “stabilizing effect on catecholamines in plasma” value in data set [1] (single components as stabilizers) is “no obvious stabilizing effect”.
Turning to `O=C1O[C@H]([C@@H](O)CO)C(O)=C1O` [ascorbic acid], the “Ratio (Area/IS Area) E” value in data set [1] (setting [4]) was 0; in data set [1] (setting [7]) it was 0.048; in data set [1] (setting [10]) it was 0; in data set [1] (setting [13]) it was 0. Further, the “Ratio (Area/IS Area) NE” value in data set [1] (setting [5]), in data set [1] (setting [8]), in data set [1] (setting [11]) and in data set [1] (setting [14]) was 0 each time. The “Ratio (Area/IS Area) DA” value in data set [1] (setting [6]), in data set [1] (setting [9]), in data set [1] (setting [12]) and in data set [1] (setting [15]) was 0 each time. For the same molecule, the “stability of ascorbic acid and glutathione in stabilizers after acceleration” value in data set [2] was “maintained stable”. For the same molecule, the Area in data set [2] (setting [16]) was 6.96E+05 and 6.32E+05 and 6.08E+05; in data set [2] (setting [17]) it was 6.88E+05 and 7.26E+05 and 6.96E+05. Also, the Relative deviation % in data set [2] was −8.2%.

The values are drawn from patent US20240310368A1, “DETECTION KIT FOR CATECHOLAMINES AND METABOLITES THEREOF IN PLASMA/URINE AND DETECTION METHOD THEREOF” (Calibra Scientific, Inc., priority 2023, published 2024).
